From publication PMC10878397, “Development of Potent Dual BET/HDAC Inhibitors via Pharmacophore Merging and Structure-Guided Optimization” (ACS Chemical Biology, 2024)
Several values for one entry are separate records, joined by “and”; a condition that tells them apart may be missing. Identical values can stand only once. Like-named read-outs stand apart in the source and are kept apart here.

What was measured:
BRD4 BD2 [1] = molecular target: T1, BRD4 BD2 (Homo sapiens, UniProt O60885); test: NanoBRET target engagement assay (HEK293T); type: cell-based; design: BRD4 bromodomains and full-length HDACs were obtained as plasmids cloned in-frame with a terminal NanoLuc fusion; host or cells: HEK293T
Description: (§1) The assay was performed as described previously.[17],[59] In brief, BRD4 bromodomains and full-length HDACs were obtained as plasmids cloned in-frame with a terminal NanoLuc fusion (Promega). Plasmids were transfected into HEK293T cells using FuGENE HD (Promega, E2312), and proteins were allowed to express for 20 h. Serially diluted inhibitor and the corresponding NanoBRET Tracer (Promega) at a concentration determined previously as the tracer KD, app were pipetted into white 384-well plates (Greiner #781207) for BRD assays or white 96-well plates (Corning #3600) for HDAC using an Echo acoustic dispenser (Labcyte). The corresponding protein-transfected cells were added and reseeded at a density of 2 × 10^5 cells/mL after trypsinization and resuspended in Opti-MEM without phenol red (Life Technologies). The system was allowed to equilibrate for 2 h at 37 °C/5% CO2 prior to BRET measurements. To measure BRET, NanoBRET NanoGlo substrate + Extracellular NanoLuc Inhibitor (Promega, N2540) was added as per the manufacturer’s protocol, and filtered luminescence was measured on a PHERAstar plate reader (BMG Labtech) equipped with a luminescence filter pair (450 nm BP filter (donor) and 610 nm LP filter (acceptor)). For lysed-mode NanoBRET experiments, digitonin (Promega, #G9441) was added as per the manufacturer’s instructions to a final concentration of […].

BRD4 BD1 [2] = molecular target: T2, BRD4 BD1 (Homo sapiens, UniProt O60885); test: NanoBRET target engagement assay (HEK293T); type: cell-based; design: BRD4 bromodomains and full-length HDACs were obtained as plasmids cloned in-frame with a terminal NanoLuc fusion; host or cells: HEK293T
Description: as §1

BRD4 bromodomains = BRD4 bromodomains (Homo sapiens, UniProt O60885); test: NanoBRET target engagement assay, both bromodomains; type: cell-based
Description: as §1

BRD4 BD2 [3] = molecular target: T1, BRD4 BD2; test: DSF thermal shift assay; type: binding; design: purchased in-house (SGC Frankfurt recombinant bromodomain DSF panel)
Description: (§2) The effects of inhibitor binding on the apparent melting temperature of recombinant bromodomains were determined by DSF in a 96-well plate (Starlab) at a protein concentration of 2 μM with 10 μΜ compound in buffer containing 25 mM HEPES, pH 7.5, 150 mM NaCl, and 0.5 mM TCEP. […] Protein unfolding profiles were recorded using an MX3005P real-time qPCR instrument (Agilent; excitation/emission filters = 492/610 nm) while increasing the temperature from 25 to 95 °C at a heating rate of 3 °C/min. Tm values were calculated after fitting the fluorescence curves to the Boltzmann equation. Differences in melting temperature upon compound binding are given as ΔTm = Tm (protein with inhibitor) – Tm (protein with DMSO control). Measurements were performed in triplicates.

BRD4 BD1 [4] = molecular target: T2, BRD4 BD1; test: DSF thermal shift assay; type: binding; design: purchased in-house (SGC Frankfurt recombinant bromodomain DSF panel)
Description: as §2

HDAC2 = HDAC2 (Homo sapiens, UniProt Q92769); test: NanoBRET target engagement assay (HEK293T); type: cell-based; design: BRD4 bromodomains and full-length HDACs were obtained as plasmids cloned in-frame with a terminal NanoLuc fusion; host or cells: HEK293T
Description: (§3) The assay was performed as described previously.[17],[59] In brief, BRD4 bromodomains and full-length HDACs were obtained as plasmids cloned in-frame with a terminal NanoLuc fusion (Promega). Plasmids were transfected into HEK293T cells using FuGENE HD (Promega, E2312), and proteins were allowed to express for 20 h. […] The corresponding protein-transfected cells were added and reseeded at a density of 2 × 10^5 cells/mL after trypsinization and resuspended in Opti-MEM without phenol red (Life Technologies). The system was allowed to equilibrate for 2 h at 37 °C/5% CO2 prior to BRET measurements. […] For lysed-mode NanoBRET experiments, digitonin (Promega, #G9441) was added as per the manufacturer’s instructions to a final concentration of […].

HDAC1 = HDAC1 (Homo sapiens, UniProt Q13547); test: NanoBRET target engagement assay (HEK293T); type: cell-based; design: BRD4 bromodomains and full-length HDACs were obtained as plasmids cloned in-frame with a terminal NanoLuc fusion; host or cells: HEK293T
Description: as §3

PaTu8988T cells = test: CellTiter-Glo cell viability assay; type: cell-based; conditions: Homo sapiens, PaTu 8988t, 72 h; treatment for 3 days
Description: (§4) PDAC cell line PaTu8988T was obtained from ATCC and cultured in Dulbecco’s modified Eagle’s medium (DMEM) containing 10% FBS, 25 mM glucose, […], 1 mM sodium pyruvate, and 1% penicillin–streptomycin. Nut midline carcinoma cell line HCC2429 was kindly provided by Lead Discovery Center GmbH (Dortmund, Germany) and was cultured in RPMI1640 medium containing 10% FBS, 2 mM L-glutamine, and 1% penicillin–streptomycin. Cell line PaTu8988T was authenticated using the Multiplex human Cell line Authentication Test (MCA) by Multiplexion GmbH, and cell line HCC2429 was authenticated using short tandem repeat (STR) profiling.
(§5) The assays were performed using Promega’s CellTiter-Glo Luminescent Cell Viability Assay kit (Cat. #G7571). First, compounds dissolved in DMSO were printed in 96-well plates (Corning) by using a Tecan D300e digital dispenser. Then, cells were seeded into the compound-printed plates using a Thermo Multidrop reagent dispenser. 72 h later, one volume of diluted CellTiter-Glo reagent (1:4 dilution with PBS) was added to individual wells by using the Thermo Multidrop reagent dispenser again. Plates were shaken for 2 min and incubated for 10 min in the dark. Luminescent signals were read by using a Tecan Spark Multimode Microplate Reader. The values were normalized to the DMSO control wells and presented as a percentage of cell viability. Dose–response curves were drawn with GraphPad Prism 8.

HCC2429 cells = test: CellTiter-Glo cell viability assay; type: cell-based; conditions: Homo sapiens, HCC2429, 72 h; treatment for 3 days
Description: as §4, §5

HDAC3 = HDAC3 (Homo sapiens, UniProt O15379); test: NanoBRET target engagement assay (HEK293T); type: cell-based; design: BRD4 bromodomains and full-length HDACs were obtained as plasmids cloned in-frame with a terminal NanoLuc fusion; host or cells: HEK293T; conditions: intact cells
Description: as §3

[5] = design: method as in PMID 30649740; conditions: cited from earlier work
[6] = read-out: DSF ΔTm BRD4 BD2, 10 μM compound, 2 μM protein
[7] = read-out: DSF ΔTm BRD4 BD1, 10 μM compound, 2 μM protein
[8] = 10 μM compound, 2 μM protein, read-out: DSF ΔTm BRD4 BD2
[9] = 10 μM compound, 2 μM protein, read-out: DSF ΔTm BRD4 BD1

HDAC2, sequence (Q92769 whole entry, the tested form may be a part): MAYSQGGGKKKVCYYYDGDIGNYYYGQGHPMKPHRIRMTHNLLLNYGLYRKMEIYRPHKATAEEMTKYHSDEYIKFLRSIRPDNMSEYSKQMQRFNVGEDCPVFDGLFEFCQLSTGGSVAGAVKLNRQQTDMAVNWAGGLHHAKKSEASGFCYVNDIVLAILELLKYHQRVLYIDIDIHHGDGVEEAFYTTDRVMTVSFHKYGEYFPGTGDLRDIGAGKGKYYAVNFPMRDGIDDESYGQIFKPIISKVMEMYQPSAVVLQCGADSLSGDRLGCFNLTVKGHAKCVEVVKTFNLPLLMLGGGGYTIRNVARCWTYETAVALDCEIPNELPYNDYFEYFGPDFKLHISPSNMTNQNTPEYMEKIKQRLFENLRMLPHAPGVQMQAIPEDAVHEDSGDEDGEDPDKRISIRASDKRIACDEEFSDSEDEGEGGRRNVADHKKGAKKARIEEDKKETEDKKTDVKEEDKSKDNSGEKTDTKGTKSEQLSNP
HDAC1, sequence (Q13547 whole entry, the tested form may be a part): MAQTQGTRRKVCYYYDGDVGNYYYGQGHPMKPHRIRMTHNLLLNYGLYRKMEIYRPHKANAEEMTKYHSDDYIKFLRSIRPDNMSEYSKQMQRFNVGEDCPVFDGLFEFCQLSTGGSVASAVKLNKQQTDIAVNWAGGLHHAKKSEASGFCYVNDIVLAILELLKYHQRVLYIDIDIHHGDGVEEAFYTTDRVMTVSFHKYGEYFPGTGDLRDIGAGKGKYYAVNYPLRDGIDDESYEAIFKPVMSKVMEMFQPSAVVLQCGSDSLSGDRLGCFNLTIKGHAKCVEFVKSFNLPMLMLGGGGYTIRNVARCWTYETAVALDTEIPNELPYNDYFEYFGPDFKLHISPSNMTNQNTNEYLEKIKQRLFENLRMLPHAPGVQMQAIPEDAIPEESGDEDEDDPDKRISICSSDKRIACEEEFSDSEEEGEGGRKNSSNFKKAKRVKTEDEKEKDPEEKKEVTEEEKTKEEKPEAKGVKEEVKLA
HDAC3, sequence (O15379 whole entry, the tested form may be a part): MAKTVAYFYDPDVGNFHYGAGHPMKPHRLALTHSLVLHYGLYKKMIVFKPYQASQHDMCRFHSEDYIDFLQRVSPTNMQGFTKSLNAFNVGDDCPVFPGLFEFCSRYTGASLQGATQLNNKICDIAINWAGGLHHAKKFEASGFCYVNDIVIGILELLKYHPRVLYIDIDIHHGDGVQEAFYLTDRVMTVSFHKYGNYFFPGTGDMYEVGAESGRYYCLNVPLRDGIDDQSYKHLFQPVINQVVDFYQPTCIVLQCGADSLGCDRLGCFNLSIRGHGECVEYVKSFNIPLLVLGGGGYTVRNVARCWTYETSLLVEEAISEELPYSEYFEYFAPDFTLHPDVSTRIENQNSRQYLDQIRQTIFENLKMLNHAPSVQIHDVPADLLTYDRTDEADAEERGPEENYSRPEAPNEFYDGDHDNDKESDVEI

Row | SMILES | EC50 (BRD4 BD2 [1]; intact cells) | EC50 (BRD4 BD1 [2]; intact cells) | EC50 (HDAC2; intact cells) | EC50 (HDAC1; intact cells) | EC50 (HDAC1; lysed cells (digitonin)) | ΔTm at 10 µM (BRD4 BD2 [3]; [8]) | ΔTm at 10 µM (BRD4 BD1 [4]; [9]) | IC50 (PaTu8988T cells) | IC50 (HCC2429 cells) | other results
1 | Cn1cc(-c2ccc3cc(C(=O)Nc4ccccc4N)ccc3n2)c2cc[nH]c2c1=O [NB437] | 200 ± 30 nM | 180 ± 30 nM | 24800 nM and 25000 nM | 23200 nM and 23000 nM | 11000 ± 1800 nM |  |  |  |  | EC50 (BRD4 bromodomains; BD1 and BD2, intact cells, read-out: NanoBRET EC50 BRD4 bromodomains): 100 to 400 nM; DSF ΔTm BRD4 BD2 (BRD4 BD2 [3]; 10 μM compound, 2 μM protein): 4.8 ± 0.2 K; ΔTm at 10 µM (BRD4 BD2 [3]; [6]): 4 to 5 °C; DSF ΔTm BRD4 BD1 (BRD4 BD1 [4]; 10 μM compound, 2 μM protein): 4.0 ± 0.2 K; ΔTm at 10 µM (BRD4 BD1 [4]; [7]): 4 to 5 °C
2 | Cn1cc(-c2ccc(C(=O)Nc3ccccc3N)cc2N)c2cc[nH]c2c1=O [NB469] | 2100 ± 400 nM | 3700 ± 500 nM | 39700 ± 9000 nM | 34400 ± 5800 nM | 32200 ± 7100 nM | 1.7 ± 0.3 °C | 0.9 ± 0.2 °C |  |  | 
3 | Cn1cc(-c2ccc(C(=O)Nc3cc(-c4ccco4)ccc3N)nc2)c2cc[nH]c2c1=O [NB513] | 310 ± 50 nM | 370 ± 50 nM | 2900 ± 1700 nM | 1300 ± 1000 nM |  |  |  | 2600 ± 300 nM | 320 ± 40 nM | 
4 | Cc1cc(/N=N/c2ccc(S(=O)(=O)Nc3ccccn3)cc2)c(N)cc1O [MS436, reference compound] |  |  | > 50000 nM | 18800 ± 1000 nM | > 50000 nM | ~3 °C | 4 ± 0.4 °C | 10400 ± 1200 nM | 810 ± 150 nM | DSF ΔTm BRD4 BD2 (BRD4 BD2 [3]; 10 μM compound, 2 μM protein): 2.9 ± 0.1 K; EC50 (HDAC2; lysed cells (digitonin)): > 50000 nM
5 | Cc1cc(/N=N/c2ccc(C(=O)Nc3ccccc3N)cc2)c(N)cc1O [NB161] |  |  | > 50000 nM | 10800 ± 5100 nM |  | ~3 °C | 5.3 °C |  |  | DSF ΔTm BRD4 BD1 (BRD4 BD1 [4]; 10 μM compound, 2 μM protein): 5.2 ± 0.3 K
6 | Cn1cc(-c2ccc(C(=O)Nc3ccccc3N)nn2)c2cc[nH]c2c1=O [NB501] | 290 ± 120 nM | 390 ± 20 nM | 4600 ± 600 nM | 16800 ± 6700 nM |  |  |  | 8500 ± 1300 nM | 540 ± 60 nM | fold reduced binding to BRD4 compared with NB500 (BRD4 bromodomains; NanoBRET): about 2 fold; ΔTm at 10 µM (BRD4 BD2 [3]; [6]): 3.6 ± 0.2 °C; ΔTm at 10 µM (BRD4 BD1 [4]; [7]): 2.9 ± 0.3 °C
7 | Cn1cc(C(=O)Nc2ccc(C(=O)Nc3ccccc3N)cc2)c2cc[nH]c2c1=O [NB480] | 2900 ± 200 nM | 2600 ± 100 nM | 3700 ± 2400 nM | 2300 ± 600 nM |  | 1.9 ± 0.3 °C | 1.9 ± 0.2 °C |  |  | 
8 | Cc1cc(/N=N/c2ccc(C(=O)Nc3ccccc3N)cc2)c2cc[nH]c2c1O [NB390] | 50 ± 10 nM | 190 ± 30 nM | 1300 ± 900 nM | 2100 ± 700 nM |  | 5.2 ± 0.2 °C | 7.5 ± 0.2 °C |  |  | 
9 | Cn1cc(-c2ccc(C(=O)Nc3cc(-c4cccs4)ccc3N)nc2)c2cc[nH]c2c1=O [NB514] | 180 ± 40 nM | 290 ± 50 nM | 58 nM and 60 nM | 140 ± 50 nM | 22 ± 8 nM |  |  | 4100 ± 700 nM | 550 ± 60 nM | EC50 (HDAC3): 11400 ± 6900 nM
10 | CC(=O)Nc1ccc(C(=O)Nc2ccccc2N)cc1 [CI-994, reference compound] |  |  |  |  |  |  |  | 13100 ± 2400 nM | 1800 ± 200 nM | EC50 (BRD4 BD2 [1]; lysed cells (digitonin)): > 50000 nM; EC50 (BRD4 BD1 [2]; lysed cells (digitonin)): > 50000 nM
11 | COc1cc(C(=O)Nc2ccccc2N)ccc1-c1cn(C)c(=O)c2[nH]ccc12 [NB470] | 230 ± 70 nM | 390 ± 60 nM | > 50000 nM | > 50000 nM | > 50000 nM | 4.3 ± 0.3 °C | 3.8 ± 0.1 °C |  |  | 
12 | Cn1cc(-c2ccc(C(=O)Nc3ccc(F)cc3N)nc2)c2cc[nH]c2c1=O [NB507] | 100 ± 10 nM | 340 ± 100 nM | 14200 ± 4500 nM | 36300 nM and 36000 nM | 8200 ± 2100 nM |  |  | 5200 ± 900 nM | 240 ± 20 nM | EC50 (HDAC3): > 50000 nM
13 | O=C(CCCCCCC(=O)Nc1ccccc1)NO [SAHA, suberoyl anilide hydroxamic acid] |  |  |  |  |  |  |  |  |  | metabolic half-life [5]: 2 h
